Here are results for 24 compounds from ChEMBL document CHEMBL1138821, “Amino porphyrins as photoinhibitors of Gram-positive and -negative bacteria” (2004).

Assay type in all cases: functional
In assay [1] the test system is Staphylococcus aureus. The experiment in a line: Minimal bacterial concentration against Staphylococcus aureus was evaluated.
Assay [2] has as its system Staphylococcus aureus. As to the kind of experiment: Minimal inhibitory concentration against Staphylococcus aureus was evaluated.
Assay [3] has as its system Staphylococcus aureus. The experiment in a line: Minimal inhibitory concentration against Staphylococcus aureus was evaluated; Range = 1.5-2 ug/mL.
The subject of assay [4] is Escherichia coli. As to the kind of experiment: Minimal bacterial concentration against Escherichia coli was evaluated; Range = 2-2.5 ug/mL.
Assay [5] deals with Staphylococcus aureus. As to the kind of experiment: Minimal bacterial concentration against Staphylococcus aureus was evaluated; Range = 2-2.5 ug/mL.
The test system of assay [6] is Staphylococcus aureus. As to the kind of experiment: Minimal inhibitory concentration against Staphylococcus aureus was evaluated; Range = 1.5-2.0 ug/mL.
The subject of assay [7] is Staphylococcus aureus. The experiment in a line: Minimal inhibitory concentration against Staphylococcus aureus was evaluated; Range = 1-1.5 ug/mL.
In assay [8] the test system is Staphylococcus aureus. As to the kind of experiment: Minimal inhibitory concentration against Staphylococcus aureus was evaluated; Range = 0.5-1.0 ug/mL.
The subject of assay [9] is Staphylococcus aureus. As to the kind of experiment: Minimal bacterial concentration against Staphylococcus aureus was evaluated; Range = 1-1.5 ug/mL.
Assay [10] relates to Staphylococcus aureus. The experiment in a line: Minimal inhibitory concentration against Staphylococcus aureus was evaluated; Range = 0-0.5 ug/mL.
In assay [11] the test system is Escherichia coli. As to the kind of experiment: Minimal bacterial concentration against Escherichia coli was evaluated; Range = 1.5-2.0 ug/mL.
Assay [12] deals with Staphylococcus aureus. The experiment in a line: Minimal bacterial concentration against Staphylococcus aureus was evaluated; Range = 1.0-1.5ug/mL.

By MBC is commonly meant the lowest tested concentration that kills the bacteria rather than only halting them. High values mean weaker bactericidal potency, low ones greater bactericidal potency. For orientation: MIC means the lowest concentration that inhibits growth of the organism. The low end stands for inhibition by little substance, the high end for a need for much substance.

SMILES strings stand for the structures. Converted amounts (≈) assume the structure as drawn. Where only a bound is given, the exact number is not on record here.

As to `Cc1ccc(C2c3ccc([nH]3)C(c3ccc(C)cc3)c3ccc([nH]3)C(c3ccccc3N)c3ccc([nH]3)C(c3ccc(C)cc3)c3ccc2[nH]3)cc1` (configuration not stated), the MBC in the assay with Staphylococcus aureus [1] was over 3 µg/mL. The same compound yielded an MIC in the assay with Staphylococcus aureus [2] of over 2.5 µg/mL.
Compound `C=CC1=C(C)/C2=C/c3[nH]c(c(C)c3C=C)/C=c3\[nH]/c(c(CCC(=O)NCCCCN(CCCN)CCCCN)c3C)=C\C3=NC(CC1=N2)C(C)=C3CCC(=O)NCCCCN(CCCN)CCCCN` (configuration not stated) registered an MIC in the assay with Staphylococcus aureus [3] of 2 µg/mL (≈ 2.08 µM). For the same compound, the MBC against Escherichia coli [4] and with Staphylococcus aureus [5] was 2.5 µg/mL (≈ 2.6 µM) each time.
In the assay on Staphylococcus aureus [6], `Nc1ccc(C2c3ccc([nH]3)C(c3ccc(N)cc3)c3ccc([nH]3)C(c3ccccc3O[C@@H]3O[C@@H](CO)[C@@H](O)[C@H](O)[C@@H]3O)c3ccc([nH]3)C(c3ccc(N)cc3)c3ccc2[nH]3)cc1` (some centres not stated) came in with an MIC of 2 µg/mL (≈ 2.37 µM). In the assay with Staphylococcus aureus [1], this compound displayed an MBC of over 1.5 µg/mL.
In the assay on Staphylococcus aureus [7], `Nc1ccc(C2c3ccc([nH]3)C(c3ccc(N)cc3)c3ccc([nH]3)C(c3ccc(O[C@@H]4O[C@@H](CO)[C@@H](O)[C@H](O)[C@@H]4O)cc3)c3ccc([nH]3)C(c3ccc(N)cc3)c3ccc2[nH]3)cc1` (some centres not stated) had an MIC of 1.5 µg/mL (≈ 1.78 µM). In the assay on Staphylococcus aureus [1], this compound came in with an MBC of over 1.5 µg/mL.
`CC(N)C(=O)Nc1ccccc1C1c2ccc([nH]2)C(c2ccc(O[C@@H]3O[C@@H](CO)[C@@H](O)[C@H](O)[C@@H]3O)cc2)c2ccc([nH]2)C(c2ccc(O[C@@H]3O[C@@H](CO)[C@@H](O)[C@H](O)[C@@H]3O)cc2)c2ccc([nH]2)C(c2ccc(O[C@@H]3O[C@@H](CO)[C@@H](O)[C@H](O)[C@@H]3O)cc2)c2ccc1[nH]2` (some centres not stated): the MIC against Staphylococcus aureus [6] stood at 2 µg/mL (≈ 1.61 µM). In the assay on Staphylococcus aureus [1], this compound came in with an MBC of over 1.5 µg/mL.
`CC(N)C(=O)Nc1ccc(C2c3ccc([nH]3)C(c3ccc(O[C@@H]4O[C@@H](CO)[C@@H](O)[C@H](O)[C@@H]4O)cc3)c3ccc([nH]3)C(c3ccc(O[C@@H]4O[C@@H](CO)[C@@H](O)[C@H](O)[C@@H]4O)cc3)c3ccc([nH]3)C(c3ccc(O[C@@H]4O[C@@H](CO)[C@@H](O)[C@H](O)[C@@H]4O)cc3)c3ccc2[nH]3)cc1` (some centres not stated): the MIC against Staphylococcus aureus [7] came to 1.5 µg/mL (≈ 1.21 µM). Also, in the assay on Staphylococcus aureus [1], the MBC is over 1.5 µg/mL.
`CC(N)C(=O)Nc1ccc(C2c3ccc([nH]3)C(c3ccc(O[C@@H]4O[C@@H](CO)[C@@H](O)[C@H](O)[C@@H]4O)cc3)c3ccc([nH]3)C(c3ccc(NC(=O)C(C)N)cc3)c3ccc([nH]3)C(c3ccc(O[C@@H]4O[C@@H](CO)[C@@H](O)[C@H](O)[C@@H]4O)cc3)c3ccc2[nH]3)cc1` (some centres not stated) gave an MIC against Staphylococcus aureus [8] of 1 µg/mL (≈ 0.87 µM). Further, in the assay with Staphylococcus aureus [9], the MBC turned out to be 1.5 µg/mL (≈ 1.31 µM).
The compound `CC(N)C(=O)Nc1ccc(C2c3ccc([nH]3)C(c3ccc(NC(=O)C(C)N)cc3)c3ccc([nH]3)C(c3ccc(O[C@@H]4O[C@@H](CO)[C@@H](O)[C@H](O)[C@@H]4O)cc3)c3ccc([nH]3)C(c3ccc(O[C@@H]4O[C@@H](CO)[C@@H](O)[C@H](O)[C@@H]4O)cc3)c3ccc2[nH]3)cc1` (some centres not stated) showed an MIC against Staphylococcus aureus [8] of 1 µg/mL (≈ 0.87 µM). The same compound registered an MBC in the assay on Staphylococcus aureus [9] of 1.5 µg/mL (≈ 1.31 µM).
The compound `CC(N)C(=O)Nc1ccc(C2c3ccc([nH]3)C(c3ccc(NC(=O)C(C)N)cc3)c3ccc([nH]3)C(c3ccccc3O[C@@H]3O[C@@H](CO)[C@@H](O)[C@H](O)[C@@H]3O)c3ccc([nH]3)C(c3ccc(NC(=O)C(C)N)cc3)c3ccc2[nH]3)cc1` (some centres not stated) had an MIC with Staphylococcus aureus [3] of 2 µg/mL (≈ 1.89 µM). Moreover, in the assay on Staphylococcus aureus [1], the MBC was over 1.5 µg/mL.
On to `CC(N)C(=O)Nc1ccc(C2c3ccc([nH]3)C(c3ccc(NC(=O)C(C)N)cc3)c3ccc([nH]3)C(c3ccc(O[C@@H]4O[C@@H](CO)[C@@H](O)[C@H](O)[C@@H]4O)cc3)c3ccc([nH]3)C(c3ccc(NC(=O)C(C)N)cc3)c3ccc2[nH]3)cc1` (some centres not stated), for which inhibition of growth in the assay with Staphylococcus aureus [7] (MIC) required 1.5 µg/mL (≈ 1.42 µM). The compound further yielded an MBC in the assay on Staphylococcus aureus [1] of over 1.5 µg/mL.
Compound `Nc1ccccc1C1c2ccc([nH]2)C(c2ccc(O[C@@H]3O[C@@H](CO)[C@@H](O)[C@H](O)[C@@H]3O)cc2)c2ccc([nH]2)C(c2ccc(O[C@@H]3O[C@@H](CO)[C@@H](O)[C@H](O)[C@@H]3O)cc2)c2ccc([nH]2)C(c2ccc(O[C@@H]3O[C@@H](CO)[C@@H](O)[C@H](O)[C@@H]3O)cc2)c2ccc1[nH]2` (some centres not stated) displayed an MIC in the assay with Staphylococcus aureus [8] of 1 µg/mL (≈ 0.855 µM). The compound further displayed an MBC against Staphylococcus aureus [1] of over 1.5 µg/mL.
Compound `Nc1ccc(C2c3ccc([nH]3)C(c3ccc(O[C@@H]4O[C@@H](CO)[C@@H](O)[C@H](O)[C@@H]4O)cc3)c3ccc([nH]3)C(c3ccc(O[C@@H]4O[C@@H](CO)[C@@H](O)[C@H](O)[C@@H]4O)cc3)c3ccc([nH]3)C(c3ccc(O[C@@H]4O[C@@H](CO)[C@@H](O)[C@H](O)[C@@H]4O)cc3)c3ccc2[nH]3)cc1` (some centres not stated) returned an MIC with Staphylococcus aureus [7] of 1.5 µg/mL (≈ 1.28 µM). Moreover, the MBC against Staphylococcus aureus [9] amounted to 1.5 µg/mL (≈ 1.28 µM).
The compound `Nc1ccc(C2c3ccc([nH]3)C(c3ccc(O[C@@H]4O[C@@H](CO)[C@@H](O)[C@H](O)[C@@H]4O)cc3)c3ccc([nH]3)C(c3ccc(N)cc3)c3ccc([nH]3)C(c3ccc(O[C@@H]4O[C@@H](CO)[C@@H](O)[C@H](O)[C@@H]4O)cc3)c3ccc2[nH]3)cc1` (some centres not stated) yielded an MIC against Staphylococcus aureus [10] of 0.5 µg/mL (≈ 0.496 µM). In the assay on Staphylococcus aureus [9], the minimum bactericidal concentration (MBC) was found to be 1.5 µg/mL (≈ 1.49 µM).
In turn, `Nc1ccc(C2c3ccc([nH]3)C(c3ccc(N)cc3)c3ccc([nH]3)C(c3ccc(O[C@@H]4O[C@@H](CO)[C@@H](O)[C@H](O)[C@@H]4O)cc3)c3ccc([nH]3)C(c3ccc(O[C@@H]4O[C@@H](CO)[C@@H](O)[C@H](O)[C@@H]4O)cc3)c3ccc2[nH]3)cc1` (some centres not stated) showed an MIC with Staphylococcus aureus [2] of over 3 µg/mL.
For the compound `N=C(N)NCCCC(NC(=O)CCCCOc1ccccc1C1c2ccc([nH]2)C(c2ccc(O[C@@H]3O[C@@H](CO)[C@@H](O)[C@H](O)[C@@H]3O)cc2)c2ccc([nH]2)C(c2ccc(O[C@@H]3O[C@@H](CO)[C@@H](O)[C@H](O)[C@@H]3O)cc2)c2ccc([nH]2)C(c2ccc(O[C@@H]3O[C@@H](CO)[C@@H](O)[C@H](O)[C@@H]3O)cc2)c2ccc1[nH]2)C(=O)NCC(=O)NC(CC(=O)O)C(=O)O` (some centres not stated), in the assay on Staphylococcus aureus [8], the MIC came out at 1 µg/mL (≈ 0.625 µM). In addition, in the assay on Staphylococcus aureus [9], the MBC worked out at 1.5 µg/mL (≈ 0.938 µM).
For `N=C(N)NCCCC(NC(=O)CCCOc1ccc(C2c3ccc([nH]3)C(c3ccc(O[C@@H]4O[C@@H](CO)[C@@H](O)[C@H](O)[C@@H]4O)cc3)c3ccc([nH]3)C(c3ccc(O[C@@H]4O[C@@H](CO)[C@@H](O)[C@H](O)[C@@H]4O)cc3)c3ccc([nH]3)C(c3ccc(O[C@@H]4O[C@@H](CO)[C@@H](O)[C@H](O)[C@@H]4O)cc3)c3ccc2[nH]3)cc1)C(=O)NCC(=O)NC(CC(=O)O)C(=O)O` (some centres not stated) the same measures were 1 µg/mL (≈ 0.631 µM) and 1.5 µg/mL (≈ 0.946 µM).
As to `Cc1ccc(C2c3ccc([nH]3)C(c3ccc(C)cc3)c3ccc([nH]3)C(c3ccc(OCCCC(=O)NC(CCCN=C(N)N)C(=O)NCC(=O)NC(CC(=O)O)C(=O)O)cc3)c3ccc([nH]3)C(c3ccc(C)cc3)c3ccc2[nH]3)cc1` (configuration not stated), in the assay on Staphylococcus aureus [1], the MBC was over 3 µg/mL. For the same compound, the MIC with Staphylococcus aureus [2] is over 2.5 µg/mL.
In turn, `Cc1ccc(C2c3ccc([nH]3)C(c3ccc(C)cc3)c3ccc([nH]3)C(c3ccccc3OCCCC(=O)NC(CCCN=C(N)N)C(=O)NCC(=O)NC(CC(=O)O)C(=O)O)c3ccc([nH]3)C(c3ccc(C)cc3)c3ccc2[nH]3)cc1` (configuration not stated) showed an MBC in the assay with Staphylococcus aureus [1] of over 3 µg/mL. This compound also displayed an MIC in the assay with Staphylococcus aureus [2] of over 2.5 µg/mL.
As to `Cc1ccc(C2c3ccc([nH]3)C(c3ccc(C)cc3)c3ccc([nH]3)C(c3ccc(N)cc3)c3ccc([nH]3)C(c3ccc(C)cc3)c3ccc2[nH]3)cc1` (configuration not stated), the MBC with Staphylococcus aureus [1] is over 3 µg/mL. The MIC with Staphylococcus aureus [2] is over 2.5 µg/mL.
`Cc1ccc(C2c3ccc([nH]3)C(c3ccc(C)cc3)c3ccc([nH]3)C(c3ccccc3NC(=O)C(N)CO)c3ccc([nH]3)C(c3ccc(C)cc3)c3ccc2[nH]3)cc1` (configuration not stated): the MIC against Staphylococcus aureus [2] is over 3 µg/mL.
For `Cc1ccc(C2c3ccc([nH]3)C(c3ccc(C)cc3)c3ccc([nH]3)C(c3ccc(OCCCC(=O)N(CCCN)CCCCN)cc3)c3ccc([nH]3)C(c3ccc(C)cc3)c3ccc2[nH]3)cc1` (configuration not stated), inhibition of growth against Staphylococcus aureus [8] (MIC) required 1 µg/mL (≈ 1.12 µM). This compound also showed an MBC against Staphylococcus aureus [9] of 1.5 µg/mL (≈ 1.68 µM).
As for `C=CC1=C(C)/C2=C/c3[nH]c(c(C)c3C=C)/C=c3\[nH]/c(c(CCC(=O)NCCCCN(CCCN)CCCCNCCCN)c3C)=C\C3=NC(CC1=N2)C(C)=C3CCC(=O)NCCCCN(CCCN)CCCCNCCCN` (configuration not stated), in the assay with Staphylococcus aureus [8], the MIC is 1 µg/mL (≈ 0.93 µM). Further, the figures for the MBC with Escherichia coli [11] and against Staphylococcus aureus [12] were 2 µg/mL (≈ 1.86 µM) and 1.5 µg/mL (≈ 1.39 µM), respectively.
`Cc1ccc(C2c3ccc([nH]3)C(c3ccc(C)cc3)c3ccc([nH]3)C(c3ccc(OCCCC(=O)N(CCCN)CCCCNCCCN)cc3)c3ccc([nH]3)C(c3ccc(C)cc3)c3ccc2[nH]3)cc1` (configuration not stated) showed an MIC in the assay with Staphylococcus aureus [7] of 1.5 µg/mL (≈ 1.58 µM). Also, in the assay on Staphylococcus aureus [1], the MBC is over 1.5 µg/mL.
In the case of `Cc1ccc(C2c3ccc([nH]3)C(c3ccc(C)cc3)c3ccc([nH]3)C(c3ccc(NC(=O)C(N)CO)cc3)c3ccc([nH]3)C(c3ccc(C)cc3)c3ccc2[nH]3)cc1` (configuration not stated), the MIC in the assay on Staphylococcus aureus [2] is over 3 µg/mL.
